Results as given in patent publication US9340590B2 (priority 2011, dated 2016).
Where “and” joins values, the source holds several entries; their conditions need not be identical. Identical values can stand only once. Entries after “also recorded” stand apart in the source; their conditions may differ. Like-named read-outs stand apart in the source and are kept apart here.

Legend:
hERG = hERG (Homo sapiens, UniProt Q12809); assay: cell-based
in vivo [1] = conditions: male, CD-1, mouse, sc
hNav1.7 [2] = target: T1, hNav1.7 (Homo sapiens, UniProt Q15858); assay type: cell-based
T1 sequence (Q15858 whole entry, looked up): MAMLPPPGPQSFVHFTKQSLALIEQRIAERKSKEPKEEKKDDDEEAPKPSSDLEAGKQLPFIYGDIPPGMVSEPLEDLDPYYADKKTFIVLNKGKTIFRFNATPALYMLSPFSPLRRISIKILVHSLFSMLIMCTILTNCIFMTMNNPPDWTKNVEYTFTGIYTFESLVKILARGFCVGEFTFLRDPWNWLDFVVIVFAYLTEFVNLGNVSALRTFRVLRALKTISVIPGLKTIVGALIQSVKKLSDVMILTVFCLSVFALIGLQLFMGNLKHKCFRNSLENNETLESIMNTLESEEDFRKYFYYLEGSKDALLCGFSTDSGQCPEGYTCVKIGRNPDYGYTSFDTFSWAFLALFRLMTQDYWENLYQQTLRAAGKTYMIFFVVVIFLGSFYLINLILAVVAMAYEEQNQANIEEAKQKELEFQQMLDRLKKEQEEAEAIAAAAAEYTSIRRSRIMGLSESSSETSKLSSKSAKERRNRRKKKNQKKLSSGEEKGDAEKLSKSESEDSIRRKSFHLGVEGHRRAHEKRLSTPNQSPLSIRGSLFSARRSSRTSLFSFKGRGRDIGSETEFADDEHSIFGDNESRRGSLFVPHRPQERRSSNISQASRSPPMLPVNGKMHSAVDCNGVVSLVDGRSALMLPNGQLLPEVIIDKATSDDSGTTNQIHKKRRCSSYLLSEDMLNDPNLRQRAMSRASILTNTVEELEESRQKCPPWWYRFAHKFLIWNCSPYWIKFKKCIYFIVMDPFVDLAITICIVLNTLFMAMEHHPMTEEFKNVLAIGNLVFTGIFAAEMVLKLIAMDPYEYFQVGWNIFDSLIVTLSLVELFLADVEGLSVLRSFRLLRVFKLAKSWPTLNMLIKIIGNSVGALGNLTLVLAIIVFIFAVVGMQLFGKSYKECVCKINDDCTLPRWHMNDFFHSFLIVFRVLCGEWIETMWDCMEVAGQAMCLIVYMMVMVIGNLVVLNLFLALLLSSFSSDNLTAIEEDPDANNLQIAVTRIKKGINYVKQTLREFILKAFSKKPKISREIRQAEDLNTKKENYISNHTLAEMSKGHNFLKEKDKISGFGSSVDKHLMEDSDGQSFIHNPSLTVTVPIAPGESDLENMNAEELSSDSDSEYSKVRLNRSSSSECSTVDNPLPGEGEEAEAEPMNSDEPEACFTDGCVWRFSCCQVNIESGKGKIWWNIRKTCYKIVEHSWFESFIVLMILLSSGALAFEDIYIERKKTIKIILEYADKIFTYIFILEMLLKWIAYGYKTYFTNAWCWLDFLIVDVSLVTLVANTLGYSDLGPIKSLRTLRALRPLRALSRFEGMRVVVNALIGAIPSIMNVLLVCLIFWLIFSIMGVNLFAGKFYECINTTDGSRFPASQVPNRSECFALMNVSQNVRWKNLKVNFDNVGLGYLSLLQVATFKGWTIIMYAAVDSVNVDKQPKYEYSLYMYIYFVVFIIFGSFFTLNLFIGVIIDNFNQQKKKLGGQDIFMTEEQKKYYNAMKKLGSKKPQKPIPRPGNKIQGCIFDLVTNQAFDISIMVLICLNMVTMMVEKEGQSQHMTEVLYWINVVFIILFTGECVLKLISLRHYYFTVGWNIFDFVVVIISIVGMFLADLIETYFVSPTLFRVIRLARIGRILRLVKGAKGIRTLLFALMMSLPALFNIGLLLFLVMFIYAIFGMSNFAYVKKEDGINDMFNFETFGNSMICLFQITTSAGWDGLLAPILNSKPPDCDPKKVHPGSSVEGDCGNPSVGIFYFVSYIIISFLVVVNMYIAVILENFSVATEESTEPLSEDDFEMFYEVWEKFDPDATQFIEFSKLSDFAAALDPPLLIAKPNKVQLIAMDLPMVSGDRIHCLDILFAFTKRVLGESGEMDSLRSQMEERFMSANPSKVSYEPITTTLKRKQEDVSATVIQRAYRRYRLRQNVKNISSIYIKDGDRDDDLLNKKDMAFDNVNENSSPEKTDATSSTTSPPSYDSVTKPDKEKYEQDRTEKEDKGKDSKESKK

hNav1.2 = hNav1.2 (Homo sapiens, UniProt Q99250); assay: cell-based; conditions: partially inactivated channels; read-out: IC50 against partially inactivated hNav1.2 channels
in vitro [3] = conditions: human, plasma
[4] = system: voltage-gated potassium currents; assay type: cell-based; conditions: 500 nM; rat DRG neuron, step to 0 mV from −90 mV
[5] = system: isolated perfused rabbit heart
in vivo [6] = conditions: male, CD-1, mouse, sc, terminal exposure (peptide plasma concentration at 2 h post peptide injection)
hNav1.5 [7] = target: T2, hNav1.5 (Homo sapiens, UniProt Q14524); assay: cell-based
[8] = system: isolated perfused rabbit heart; remark: listed apart in the source
hNav1.3 [9] = target: T3, hNav1.3 (Homo sapiens, UniProt Q9NY46); assay: cell-based; conditions: IonWorks Quattro; clamped to −110 mV, depolarized to −10 mV, 5 min after compound; n=2; read-out: IWQ Use Nav1.3
T3 sequence (Q9NY46 whole entry, looked up): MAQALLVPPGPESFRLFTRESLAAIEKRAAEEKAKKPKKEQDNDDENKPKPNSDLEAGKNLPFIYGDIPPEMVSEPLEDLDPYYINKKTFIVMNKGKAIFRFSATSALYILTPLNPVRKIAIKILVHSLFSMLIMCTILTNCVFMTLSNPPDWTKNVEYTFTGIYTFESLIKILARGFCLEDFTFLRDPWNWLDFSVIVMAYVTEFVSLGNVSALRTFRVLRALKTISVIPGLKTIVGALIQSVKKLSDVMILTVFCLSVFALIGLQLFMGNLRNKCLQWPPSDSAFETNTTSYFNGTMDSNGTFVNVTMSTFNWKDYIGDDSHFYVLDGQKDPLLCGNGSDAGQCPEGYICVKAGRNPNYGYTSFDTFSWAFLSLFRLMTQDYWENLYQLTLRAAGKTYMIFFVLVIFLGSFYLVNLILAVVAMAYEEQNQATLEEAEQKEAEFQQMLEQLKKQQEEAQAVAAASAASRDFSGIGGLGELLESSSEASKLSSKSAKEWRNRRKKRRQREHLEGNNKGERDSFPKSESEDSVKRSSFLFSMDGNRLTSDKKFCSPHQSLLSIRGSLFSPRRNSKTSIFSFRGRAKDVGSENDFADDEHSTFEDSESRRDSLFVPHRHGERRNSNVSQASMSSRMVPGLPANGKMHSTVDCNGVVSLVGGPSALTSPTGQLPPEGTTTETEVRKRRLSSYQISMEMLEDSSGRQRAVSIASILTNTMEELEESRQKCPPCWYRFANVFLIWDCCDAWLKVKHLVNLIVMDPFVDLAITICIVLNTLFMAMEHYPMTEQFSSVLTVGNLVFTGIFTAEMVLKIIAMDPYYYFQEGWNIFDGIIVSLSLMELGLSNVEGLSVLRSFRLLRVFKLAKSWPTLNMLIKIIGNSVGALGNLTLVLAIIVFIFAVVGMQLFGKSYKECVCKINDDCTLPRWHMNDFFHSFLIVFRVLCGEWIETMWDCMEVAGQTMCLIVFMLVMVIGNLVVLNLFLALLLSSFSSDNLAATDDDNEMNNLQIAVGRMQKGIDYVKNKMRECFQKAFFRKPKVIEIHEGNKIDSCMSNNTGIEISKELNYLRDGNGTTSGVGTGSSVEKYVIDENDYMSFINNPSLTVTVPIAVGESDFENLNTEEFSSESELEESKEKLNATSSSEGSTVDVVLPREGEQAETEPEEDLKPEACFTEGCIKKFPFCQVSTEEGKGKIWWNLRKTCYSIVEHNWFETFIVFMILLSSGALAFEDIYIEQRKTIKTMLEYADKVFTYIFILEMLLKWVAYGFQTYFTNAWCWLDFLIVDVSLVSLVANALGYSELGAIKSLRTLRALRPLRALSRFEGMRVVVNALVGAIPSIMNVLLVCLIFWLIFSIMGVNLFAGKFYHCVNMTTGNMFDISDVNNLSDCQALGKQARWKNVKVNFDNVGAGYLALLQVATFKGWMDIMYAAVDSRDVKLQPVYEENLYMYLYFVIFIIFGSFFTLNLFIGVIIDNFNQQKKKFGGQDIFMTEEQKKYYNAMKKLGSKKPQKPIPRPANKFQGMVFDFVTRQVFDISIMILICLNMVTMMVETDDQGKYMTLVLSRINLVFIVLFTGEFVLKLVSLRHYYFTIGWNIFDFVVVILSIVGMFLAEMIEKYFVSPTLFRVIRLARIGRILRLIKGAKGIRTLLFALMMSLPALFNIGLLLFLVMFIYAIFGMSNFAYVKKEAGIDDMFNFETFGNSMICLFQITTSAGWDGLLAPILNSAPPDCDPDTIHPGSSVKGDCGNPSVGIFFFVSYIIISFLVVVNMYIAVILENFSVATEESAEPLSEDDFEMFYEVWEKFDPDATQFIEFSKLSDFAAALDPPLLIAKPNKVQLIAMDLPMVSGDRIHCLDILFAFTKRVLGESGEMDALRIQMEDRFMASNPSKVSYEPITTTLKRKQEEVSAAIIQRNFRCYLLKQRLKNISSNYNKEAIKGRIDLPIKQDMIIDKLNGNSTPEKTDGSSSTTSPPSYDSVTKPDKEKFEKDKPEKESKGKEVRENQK

in vivo [10] = conditions: CD-1, mouse
[11] = system: formalin pain model in male CD-1 mice; conditions: for time spent lifting/licking, first phase / time spent lifting/licking, second phase: third study
[12] = system: TTX-sensitive Nav channels in mouse DRG neurons; assay type: cell-based
hNav1.5 [13] = target: T2, hNav1.5; assay: cell-based; conditions: IonWorks Quattro; clamped to −110 mV, depolarized to −10 mV, 5 min after compound; n=2; read-out: IWQ Use Nav1.5
fast sodium current = assay type: cell-based; conditions: 500 nM; rat DRG neuron, step to 0 mV from −90 mV
[14] = system: locomotor activity in male CD-1 mice
[15] = mouse plasma, 37° C., incubation time 0 hr (normalisation point)
hNav1.7 [16] = target: T1, hNav1.7; assay: cell-based; conditions: Nav1.7 Use IC50
hNav1.3 [17] = target: T3, hNav1.3; assay: cell-based; assay type: cell-based; conditions: Nav1.3 Use IC50
hNav1.7 [18] = target: T1, hNav1.7; assay: cell-based; assay type: cell-based
in vitro [19] = conditions: mouse, plasma
hNav1.5 [20] = target: T2, hNav1.5; assay: cell-based; conditions: PatchXpress counterscreen; held at −80 mV, prepulse −120 mV, test step −30 mV; read-out: IC50 against hNav1.5 (counterscreen)
[21] = human plasma, 37° C., incubation time 0 hr (normalisation point)
Nav1.8 = Nav1.8 (Rattus norvegicus, UniProt Q62968); conditions: read-out: TTX IC50; cited from earlier work
Nav1.7 = Nav1.7 (Rattus norvegicus, UniProt O08562); conditions: read-out: TTX IC50; cited from earlier work
Nav1.6 = Nav1.6 (Rattus norvegicus, UniProt O88420); conditions: read-out: TTX IC50; cited from earlier work
Nav1.4 = Nav1.4 (Rattus norvegicus, UniProt P15390); conditions: read-out: TTX IC50; cited from earlier work
Nav1.3 = Nav1.3 (Rattus norvegicus, UniProt P08104); conditions: read-out: TTX IC50; cited from earlier work
[22] = first study, 5 mg/kg s.c., 1-hour pre-treatment
[23] = later studies (FIGS. 99-110), 5 mg/kg s.c., 1-hour pre-treatment

hERG, sequence (Q12809 whole entry): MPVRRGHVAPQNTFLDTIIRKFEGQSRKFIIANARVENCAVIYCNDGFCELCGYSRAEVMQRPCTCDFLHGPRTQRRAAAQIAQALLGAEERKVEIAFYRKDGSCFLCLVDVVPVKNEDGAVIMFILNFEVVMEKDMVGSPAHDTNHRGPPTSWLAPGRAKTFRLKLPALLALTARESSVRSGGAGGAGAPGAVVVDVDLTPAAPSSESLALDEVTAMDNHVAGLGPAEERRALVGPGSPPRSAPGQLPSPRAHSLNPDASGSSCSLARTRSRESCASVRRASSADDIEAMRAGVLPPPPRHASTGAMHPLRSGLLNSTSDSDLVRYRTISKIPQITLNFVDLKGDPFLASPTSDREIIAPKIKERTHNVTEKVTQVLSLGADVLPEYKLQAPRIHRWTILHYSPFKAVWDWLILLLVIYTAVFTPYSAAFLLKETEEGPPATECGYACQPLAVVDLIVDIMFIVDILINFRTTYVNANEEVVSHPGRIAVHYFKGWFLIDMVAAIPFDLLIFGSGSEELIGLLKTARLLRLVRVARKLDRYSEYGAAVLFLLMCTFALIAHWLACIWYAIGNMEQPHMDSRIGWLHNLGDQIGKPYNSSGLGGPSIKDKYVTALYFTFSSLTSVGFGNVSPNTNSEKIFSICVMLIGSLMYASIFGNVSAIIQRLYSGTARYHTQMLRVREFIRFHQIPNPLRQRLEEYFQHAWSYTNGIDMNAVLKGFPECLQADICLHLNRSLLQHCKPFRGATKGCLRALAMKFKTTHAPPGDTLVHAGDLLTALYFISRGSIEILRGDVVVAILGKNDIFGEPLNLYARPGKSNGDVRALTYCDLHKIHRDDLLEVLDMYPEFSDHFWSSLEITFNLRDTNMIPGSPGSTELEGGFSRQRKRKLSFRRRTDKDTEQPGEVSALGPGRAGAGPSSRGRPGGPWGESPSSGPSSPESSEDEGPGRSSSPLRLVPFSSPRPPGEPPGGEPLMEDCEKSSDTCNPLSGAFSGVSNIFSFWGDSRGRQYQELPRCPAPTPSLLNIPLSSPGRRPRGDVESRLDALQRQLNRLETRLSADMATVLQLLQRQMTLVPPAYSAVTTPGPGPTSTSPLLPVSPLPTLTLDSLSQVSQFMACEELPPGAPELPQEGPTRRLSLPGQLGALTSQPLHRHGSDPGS

CC[C@H](C)[C@@H]1NC(=O)[C@@H]2CSSC[C@@H]3NC(=O)[C@H](C(C)C)NC(=O)[C@H](CC(C)C)NC(=O)[C@H](CC(N)=O)NC(=O)[C@@H]4CCCN4C(=O)[C@H](CCCNC(=N)N)NC(=O)[C@H](CSSC[C@H](NC(=O)[C@@H](N)CC(=O)O)C(=O)N[C@@H](CC(C)C)C(=O)NCC(=O)N[C@@H](C)C(=O)N[C@@H](CCSC)C(=O)N[C@@H](CCCNC(=N)N)C(=O)N[C@@H](CCCCN)C(=O)N2)NC(=O)[C@H](CSSC[C@@H](C(=O)N[C@@H](CCCCN)C(=O)N[C@@H](Cc2ccc(O)cc2)C(=O)N[C@H](C(=O)N[C@@H](Cc2ccccc2)C(N)=O)C(C)C)NC(=O)[C@H](Cc2c[nH]c4ccccc24)NC(=O)[C@H](CCCCN)NC(=O)[C@H](Cc2cnc[nH]2)NC(=O)[C@H]([C@@H](C)O)NC(=O)[C@H](CCCNC(=N)N)NC(=O)[C@H](CO)NC3=O)NC(=O)[C@H](CCCCN)NC(=O)[C@H](CC(=O)O)NC(=O)[C@H](CC(N)=O)NC(=O)[C@H](CC(=O)O)NC(=O)[C@@H]2CCCN2C1=O [SEQ ID NO: 22]
IC50 (hERG): > 10000 nM | level at time molar at […] (in vivo [1]; 0.5 mg/kg, terminal exposure (peptide plasma concentration at 45 min post formalin injection), second study, 0.5 mg/kg s.c.): 40 nM | level at time molar at […] (in vivo [1]; 1 mg/kg, terminal exposure (peptide plasma concentration at 45 min post formalin injection), third study, 1 mg/kg s.c.): 200 ± 50 nM | level at time molar at […] (in vivo [1]; 3 mg/kg, terminal exposure (peptide plasma concentration at 45 min post formalin injection), third study, 3 mg/kg s.c.): 530 ± 230 nM | level at time molar at […] (in vivo [1]; 5 mg/kg, terminal exposure (peptide plasma concentration at 45 min post formalin injection), second study, 5.0 mg/kg s.c.): 580 ± 260 nM | level at time molar at […] (in vivo [1]; 5 mg/kg, terminal exposure (peptide plasma concentration at 45 min post formalin injection), third study, 5 mg/kg s.c.): 1840 ± 180 nM | level at time molar at […] (in vivo [1]; 5 mg/kg, terminal plasma exposure (peptide plasma concentration at 45 min post formalin injection), first study, 5 mg/kg s.c.): 800 ± 210 nM | inhibition of the Nav1.7 current (hNav1.7 [2]): complete inhibition | IC50 (hNav1.7 [2]; read-out: IC50 against partially inactivated hNav1.7 channels): 13.2 nM | IC50 (hNav1.2): 265 nM | remaining at 2 h (in vitro [3]): 105% | remaining at 4 h (in vitro [3]): 99% | remaining at 8 h (in vitro [3]): 101% | remaining at 24 h (in vitro [3]): 105% | effect on voltage-gated potassium currents [4]: did not block voltage-gated potassium currents | HR, normalized value, mean [5]: −0.18% | JT, normalized value, mean [5]: −4.57% | JTcF, normalized value, mean [5]: −4.60% | PR, normalized value, mean [5]: −3.52% | QRS, normalized value, mean [5]: −1.55% | QT, normalized value, mean [5]: −4.19% | QTcF, normalized value, mean [5]: −4.22% | heart rate ([5]; 1 μM, 20 minutes): no effects | ventricular depolarization and conduction (QRS and PR intervals) ([5]; 1 μM, 20 minutes): no effects | ventricular repolarization (QTc or JTc intervals) ([5]; 1 μM, 20 minutes): no delaying effects | tolerability in mice (1 mg/kg i.v.): tolerated | exposure in blood (1 mg/kg s.c.): measurable exposure | sustained peptide concentration in the plasma (5 mg/kg s.c.): about 0.6 μM | time plasma concentration was sustained (5 mg/kg s.c.): 3 h | level at time molar at 2 h (in vivo [6]; 3 mg/kg, first study, 3 mg/kg s.c.): 890 ± 330 nM | level at time molar at 2 h (in vivo [6]; 5 mg/kg, first study, 5 mg/kg s.c.): 1790 ± 380 nM | level at time molar at 2 h (in vivo [6]; 5 mg/kg, later studies, 5 mg/kg s.c.): 2100 ± 470 nM | IC50 (hNav1.5 [7]): > 10000 nM | Flow, mean, normalized value [8]: 0.29% | LVDP, mean, normalized value [8]: −3.16% | LVDevP, normalized value [8]: −7.22% | LVSP, mean, normalized value [8]: −8.81% | dP/dt+, mean, normalized value [8]: −6.55% | dP/dt−, mean, normalized value [8]: −2.93% | LV contractility (dP/dt+) ([8]; 1 μM, 20 minutes): no effects | coronary blood flow (CF) ([8]; 1 μM, 20 minutes): no effects | coronary vasculature ([8]; 1 μM, 20 minutes): no direct effects | IC50 (hNav1.3 [9]): 1750 nM | half-life (in vivo [10]; sc, 5 mg/kg): 36 min | level at time molar (in vivo [10]; sc, 5 mg/kg): ~600 nM | half-life (in vivo [10]; male, iv, 1 mg/kg): ~15 min | plasma concentrations with significant reproducible reduction in paw lifting/licking ([11]; first two mouse formalin experiments): 0.60 to 0.80 µM | time spent lifting and/or licking the affected paw, second phase (5-40 minutes post formalin injection) ([11]; mouse, in vivo): significantly reduced | time spent lifting/licking, first phase ([11]; peptide 1 mg/kg s.c.): appeared to increase | time spent lifting/licking, second phase ([11]; peptide 1 mg/kg s.c.): not significantly different | time spent lifting/licking, first phase ([11]; peptide 3 mg/kg s.c.): appeared to increase | time spent lifting/licking, second phase ([11]; peptide 3 mg/kg s.c.): appeared to significantly increase | block of TTX-sensitive Nav current, time course of increasing concentrations [12]: blocked nearly all TTX-sensitive Nav current | block of TTX-sensitive versus TTX-resistant Nav current [12]: selectively blocked TTX-sensitive Nay current but not TTX-resistant Nav current | IC50 ([12]; cells held at −140 mV, read-out: IC50 against TTX-sensitive sodium channels in mDRG neurons): 17 nM | IC50 (hNav1.5 [13]): 10300 nM | effect on fast sodium current (fast sodium current): blocked fast sodium current; also recorded: steadily decreased | total fine movement [14, 22]: significantly reduced | total time rearing [14, 22]: significantly reduced | total basic movement [14, 23]: significantly reduced | total fine movement [14, 23]: significantly reduced | total rearing [14, 23]: significantly reduced | total time rearing [14, 23]: significantly reduced | peptide plasma concentrations resulting in significant effects on locomotor activity ([14]; mouse, in vivo): > 1.5 µM | % peptide remaining [15]: 100% | IC50 (hNav1.7 [16]): 18 nM and 34 nM and 30 nM and 14 nM | IC50 (hNav1.3 [17]): 129 nM and 158 nM | IC50 (hNav1.7 [18]): 640 nM | remaining at 2 h (in vitro [19]): 106% | remaining at 4 h (in vitro [19]): 107% | remaining at 8 h (in vitro [19]): 105% | remaining at 24 h (in vitro [19]): 99% | IC50 (hNav1.5 [20]): > 30000 nM | % peptide remaining [21]: 100%

NC1=N[C@H](O)[C@H]2[C@H]3O[C@]4(O)O[C@@H]([C@@H](O)[C@@]2(N1)[C@@H]4O)[C@]3(O)CO [TTX, tetrodotoxin]
IC50 (Nav1.8): > 50000 nM | IC50 (Nav1.7): 4 nM | IC50 (Nav1.6): 1 nM | IC50 (Nav1.4): 5 nM | IC50 (Nav1.3): 2 to 15 nM
